Experimental data from publication PMC9775177, “NLRP3-Inflammasome Inhibition with IZD334 Does Not Reduce Cardiac Damage in a Pig Model of Myocardial Infarction” (Biomedicines, 2022).
“And” between values parts separate entries of the source, which are not always exact repeats. Equal entries are not always repeated.

What was measured:
[1] = tested on: NLRP3-inflammasome; assay: In vitro stimulation of porcine PBMCs with LPS and ATP, IL-1β release; assay type: cell-based; details: porcine PBMCs and whole blood, LPS 1 µg/mL 3 h, then 5 mM ATP 1 h
Protocol: To confirm the ability of IZD334 to effectively attenuate porcine NLRP3-inflammasome signaling, we used a previously standardized study protocol. In short, porcine peripheral blood mononuclear cells (PBMCs) were isolated from healthy porcine animals. Whole blood samples and isolated PBMCs were stimulated with lipopolysaccharide (LPS) (1 µg/mL, L4516, Sigma-Aldrich, St. Louis, MO, USA) and increasing concentrations of IZD334. After three h of incubation, 5 mM adenosine triphosphate (ATP) (A1852, Sigma-Aldrich, St. Louis, MO, USA) was added for 1 h to induce inflammasome activation. IL-1β release was measured in the supernatant with a Luminex Immunoasssay specific for porcine IL-1β (EPX01A-66048-901, ProcartaTM Simplex, eBioscience, ThermoFisher, San Diego, CA, USA).
In short, porcine peripheral blood mononuclear cells (PBMCs) were isolated from healthy porcine animals using Ficoll density-gradient centrifugation. Whole blood samples and isolated PBMCs were stimulated with lipopolysaccharide (LPS) (1 µg/mL, L4516, Sigma-Aldrich, St. Louis, MO, USA) and increasing concentrations of IZD334 (top concentration of 10 µM with an 8-point half-log dilution). […] IL-1β release was measured in the supernatant with a Luminex Immunoasssay specific for porcine IL-1β (ProcartaTM Simplex, eBioscience, San Diego, CA, USA).

[2] = tested on: NLRP3-inflammasome; assay: Ex vivo stimulation assay of whole blood after in vivo IZD334 infusion, IL-1β release; parameters: species or system pigs; details: whole blood taken 60 min after in vivo infusion of 10 mg/kg, LPS + ATP; before infusion 11856 ± 1969 ng/mL, p < 0.001
Protocol: To more specifically determine in vivo target engagement, whole blood was obtained at baseline (prior to IZD334 infusion) and 60 min after in vivo IZD334 infusion (10 mg/kg). These samples were then stimulated with LPS and ATP in a similar fashion as in the previously described experiments. IL-1β release was measured in the supernatant with a Luminex Immunoassay specific for porcine IL-1β (ProcartaTM Simplex, eBioscience, San Diego, CA, USA).

[3] = Pharmacokinetics study in healthy pigs; assay type: in vivo
Protocol: Healthy female pigs (n = 3) were given intravenous (IV) treatment with IZD334 (3 mg/kg) via a 30 min infusion, and blood was collected at multiple timepoints and analyzed to determine pharmacokinetics. After a wash-out period of 3 days, the pigs received an oral dose (10 mg/kg), and plasma was again collected and analyzed.
In vivo IZD334 concentrations were measured in plasma samples using mass-spectrometry. IZD334 content was quantified using positive ionization mode and multiple reaction monitoring on a Sciex API 5500 Mass spectrometer (MRM transition: 392.0 > 176.1).
At multiple time points (0.033, 0.083, 0.17, 0.25, 0.50, 1.0, 2.0, 3.0, 4.0, 6.0, 8.0, 12.0, 24.0 h) after dosing, plasma was collected by whole-blood centrifugation at 1850× g, and samples were immediately stored to determine pharmacokinetics. After a wash-out period of 3 days, the pigs received an oral dose (10 mg/kg), and plasma was collected again at multiple time points (0.25, 0.50, 0.75, 1.0, 2.0, 3.0, 4.0, 6.0, 8.0, 12.0, 24.0 h) for pharmacokinetic purposes. Samples were sent to Sygnature Discovery (Nottingham, United Kingdom) to determine circulating levels of IZD334.
The volume of distribution at steady state (Vdss) is defined as the total concentration of IZD334 in the entire body divided by IZD334 plasma concentration. Drug clearance (Cl) was calculated by dividing the total administered dose with the area under the curve. Maximal concentration (Cmax) was obtained by calculating the mean of the highest concentrations of the separate pigs. Bioavailability (F%) was calculated using the following equation: (100 ∗ ((area under the curve oral dose × IV dose)/(area under the curve IV dose × oral dose))).

[4] = tested on: pig model of myocardial infarction; assay: In vivo MI study: cardiac volumes and function by cardiac magnetic resonance; parameters: species or system pigs; details: CMR, 10 mg/kg IV loading dose, 7 days after MI
Protocol: Oral treatment was continued for six days. […] Animals were sacrificed by exsanguination under anesthesia.
Animals were placed on the CMR table in a supine position, under continuous sedation as described above. Steady-state free precession (SSFP) short axis images from the left ventricle (LV) base through the LV apex were used for the quantification of LV volumes, ejection fraction (EF), and mass. Imaging was performed using a respiratory-corrected, cardiac-gated SSFP in sequence. CMR images were anonymized and analyzed offline using MedisSuite (Medis Medical Imaging Systems, version 3.1, Leiden, The Netherlands).

[5] = healthy pigs n = 3, PO 10 mg/kg
[6] = then 1 mg/kg oral once daily, n = 6
[7] = then 3 mg/kg oral once daily, n = 7
[8] = then 10 mg/kg oral once daily, n = 7

Compound: CCN1CCC(S(=O)(=O)[N-]C(=O)Nc2c3c(cc4c2CCC4)CCC3)CC1.[K+] [IZD334]
- IL-1β release [1]: dose-dependently reduced IL-1β release
- IL-1β release after ex vivo stimulation [2]: 3968 ng/mL
- AUC0-inf (ng.h/mL) ([3]; healthy pigs n = 3, IV 3 mg/kg): 27,786 ng.h/mL
- Cl ([3]; healthy pigs n = 3, IV 3 mg/kg): 1.8 mL/min/kg
- MRT0-inf ([3]; healthy pigs n = 3, IV 3 mg/kg): 5.3 h
- Vdss ([3]; healthy pigs n = 3, IV 3 mg/kg): 0.58 L/kg
- T1/2 ([3]; healthy pigs n = 3, IV 3 mg/kg, 30 min infusion): 3.9 h
- AUC0-inf (ng.h/mL) [3, 5]: 86,337 ng.h/mL
- Cmax (ng/mL) [3, 5]: 12,116 ng/mL
- F% (bioavailability) ([3]; healthy pigs n = 3, PO 10 mg/kg versus IV 3 mg/kg): 93%
- time that plasma concentrations sufficient for effective inhibition were maintained ([3]; healthy pigs, IV 3 mg/kg, based on extrapolation of in vitro results): 24 h
- circulating levels 24 h after compound administration ([3]; healthy pigs, PO 10 mg/kg): adequate circulating levels
- EDV [4, 6]: 150 ± 26 mL and 149.6 ± 26.2 mL
- EF% [4, 6]: 49.9 ± 6.1%
- ESV [4, 6]: 72 ± 19 mL and 71.5 ± 18.7 mL
- EDV [4, 7]: 151 ± 8 mL and 151.4 ± 7.6 mL
- EF% [4, 7]: 42.7 ± 3.8%
- ESV [4, 7]: 87 ± 8 mL and 86.8 ± 8.2 mL
- EDV [4, 8]: 144 ± 22 mL and 144.0 ± 22.0 mL
- EF% [4, 8]: 44.9 ± 6.4%
- ESV [4, 8]: 80 ± 19 mL and 80.0 ± 18.9 mL
